Assay: stabilization of FK506 dissolved in lower alkanediols
Assay type: physicochemical
Settings: such as ethylene glycol, propylene glycol, butylene glycol
Procedure: It was also confirmed that carboxybinyl polymer could make FK506 stable, when FK506 was dissolved in lower alkanediols, such as ethylene glycol, propylene glycol, butylene glycol, etc. And, it was further confirmed that a combination of hydroxypropyl cellulose and ascorbyl palmitate could also make FK506 stable, when FK506 was dissolved in lower alkanediols, such as ethylene glycol, propylene glycol, butylene glycol, etc.

**Q.** Which results are given for C=CC[C@@H]1/C=C(\C)C[C@H](C)C[C@H](OC)[C@H]2O[C@@](O)(C(=O)C(=O)N3CCCC[C@H]3C(=O)O[C@H](/C(C)=C/[C@@H]3CC[C@@H](O)[C@H](OC)C3)[C@H](C)[C@@H](O)CC1=O)[C@H](C)C[C@@H]2OC [FK506, 17-allyl-1,14-dihydroxy-12-[2-(4-hydroxy-3-methoxycyclohexyl)-1-methylvinyl]-23,25-dimethoxy-13,19,21,27-tetramethyl-11,28-dioxa-4-azatricyclo[22.3.1.0^4,9]octacos-18-ene-2,3,10,16-tetraone]?
**A.** stability of FK506 with carboxybinyl polymer (carboxybinyl polymer added): stable; stability of FK506 with a combination of hydroxypropyl cellulose and ascorbyl palmitate (hydroxypropyl cellulose and ascorbyl palmitate added): stable

Source: patent US20040220204A1, “Pharmaceutical composition comprising a tricyclic compound for the prevention or treatment of skin diseases” (priority 2001, published 2004)
